Measurements: ChEMBL document CHEMBL1201862, “PubChem BioAssay data set” (2004)
Activity calls are given as the source filed them.

Assays:
[1] = molecular target: Glyceraldehyde-3-phosphate dehydrogenase (Homo sapiens, UniProt P04406)
[2] = molecular target: T1, Alkaline phosphatase, tissue-nonspecific isozyme (Homo sapiens, UniProt P05186); assay: human TNAP enzyme inhibitors, SAR follow-up, biochemical, luminescent, dose response (AID 1056)
T1 sequence (P05186 whole entry): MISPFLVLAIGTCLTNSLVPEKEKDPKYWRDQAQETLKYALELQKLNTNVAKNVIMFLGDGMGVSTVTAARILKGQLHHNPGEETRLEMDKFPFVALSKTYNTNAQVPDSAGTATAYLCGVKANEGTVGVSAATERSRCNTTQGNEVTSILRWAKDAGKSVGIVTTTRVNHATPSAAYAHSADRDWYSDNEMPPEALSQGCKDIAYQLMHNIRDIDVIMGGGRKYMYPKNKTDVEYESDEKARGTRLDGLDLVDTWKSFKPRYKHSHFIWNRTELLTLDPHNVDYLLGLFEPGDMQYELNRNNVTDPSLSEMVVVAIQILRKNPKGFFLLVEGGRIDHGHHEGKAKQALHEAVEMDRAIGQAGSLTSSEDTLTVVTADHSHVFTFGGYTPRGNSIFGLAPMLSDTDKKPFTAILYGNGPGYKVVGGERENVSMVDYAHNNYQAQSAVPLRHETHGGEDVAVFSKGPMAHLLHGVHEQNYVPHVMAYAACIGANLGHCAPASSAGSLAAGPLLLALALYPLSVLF

[3] = molecular target: Cytochrome P450 2C9 (Homo sapiens, UniProt P11712)
Cytochrome P450 2C9, sequence (P11712 whole entry): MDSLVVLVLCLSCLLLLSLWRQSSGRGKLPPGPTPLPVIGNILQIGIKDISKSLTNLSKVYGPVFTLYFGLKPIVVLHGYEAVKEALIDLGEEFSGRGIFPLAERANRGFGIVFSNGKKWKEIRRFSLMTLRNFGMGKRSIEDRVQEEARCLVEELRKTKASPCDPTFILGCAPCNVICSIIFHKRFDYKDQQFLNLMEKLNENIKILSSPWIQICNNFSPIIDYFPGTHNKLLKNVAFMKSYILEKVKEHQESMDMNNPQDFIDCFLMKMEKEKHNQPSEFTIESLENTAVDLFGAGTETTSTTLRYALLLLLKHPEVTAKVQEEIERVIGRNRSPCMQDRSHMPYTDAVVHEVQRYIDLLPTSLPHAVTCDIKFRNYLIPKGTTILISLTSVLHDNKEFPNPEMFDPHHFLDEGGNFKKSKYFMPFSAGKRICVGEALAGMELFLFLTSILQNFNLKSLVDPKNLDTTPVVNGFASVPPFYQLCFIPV

[4] = molecular target: Cytochrome P450 3A4 (Homo sapiens, UniProt P08684);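 further: CYP3A4 tested as one member of a cytochrome P450 panel screen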
Cytochrome P450 3A4, sequence (P08684 whole entry): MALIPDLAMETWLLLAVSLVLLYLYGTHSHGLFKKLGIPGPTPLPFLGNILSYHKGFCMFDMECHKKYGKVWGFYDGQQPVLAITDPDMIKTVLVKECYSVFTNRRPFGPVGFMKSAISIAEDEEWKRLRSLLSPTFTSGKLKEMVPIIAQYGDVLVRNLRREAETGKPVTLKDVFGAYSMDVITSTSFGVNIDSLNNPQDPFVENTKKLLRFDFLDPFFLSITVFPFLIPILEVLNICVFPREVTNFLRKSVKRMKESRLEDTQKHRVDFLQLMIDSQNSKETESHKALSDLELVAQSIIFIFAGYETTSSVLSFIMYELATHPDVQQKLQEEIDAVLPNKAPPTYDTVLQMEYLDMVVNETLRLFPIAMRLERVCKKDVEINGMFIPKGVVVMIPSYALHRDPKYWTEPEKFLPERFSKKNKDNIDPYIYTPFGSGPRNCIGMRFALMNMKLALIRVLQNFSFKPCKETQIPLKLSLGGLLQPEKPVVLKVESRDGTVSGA

[5] = molecular target: Melanocortin receptor 4 (Homo sapiens, UniProt P32245); assay type: functional, cell-based;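 further: Cell-based assay with luminescence read-out, confirmatory dose-response testing for agonist activity of biased ligands at MC4R; human U2OS cells with tagged receptor and beta-arrestin; potency of agonists that increase receptor coupling to beta-arrestin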
Melanocortin receptor 4, sequence (P32245 whole entry): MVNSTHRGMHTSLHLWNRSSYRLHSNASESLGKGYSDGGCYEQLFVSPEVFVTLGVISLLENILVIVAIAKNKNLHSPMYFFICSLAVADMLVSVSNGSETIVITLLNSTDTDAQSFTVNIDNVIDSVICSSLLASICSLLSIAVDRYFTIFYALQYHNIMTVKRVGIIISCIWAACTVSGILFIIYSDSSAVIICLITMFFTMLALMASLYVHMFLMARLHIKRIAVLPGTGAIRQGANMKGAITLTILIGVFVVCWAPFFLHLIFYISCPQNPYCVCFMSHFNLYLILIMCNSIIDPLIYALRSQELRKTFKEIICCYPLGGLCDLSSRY

[6] = molecular target: T2, Zinc finger protein mex-5 (Caenorhabditis elegans, UniProt Q9XUB2); assay: MEX-5/TCR-2 RNA interaction inhibitors, dose response, biochemical, C. elegans, fluorescence polarization (AID 1960)
T2 sequence (Q9XUB2 whole entry): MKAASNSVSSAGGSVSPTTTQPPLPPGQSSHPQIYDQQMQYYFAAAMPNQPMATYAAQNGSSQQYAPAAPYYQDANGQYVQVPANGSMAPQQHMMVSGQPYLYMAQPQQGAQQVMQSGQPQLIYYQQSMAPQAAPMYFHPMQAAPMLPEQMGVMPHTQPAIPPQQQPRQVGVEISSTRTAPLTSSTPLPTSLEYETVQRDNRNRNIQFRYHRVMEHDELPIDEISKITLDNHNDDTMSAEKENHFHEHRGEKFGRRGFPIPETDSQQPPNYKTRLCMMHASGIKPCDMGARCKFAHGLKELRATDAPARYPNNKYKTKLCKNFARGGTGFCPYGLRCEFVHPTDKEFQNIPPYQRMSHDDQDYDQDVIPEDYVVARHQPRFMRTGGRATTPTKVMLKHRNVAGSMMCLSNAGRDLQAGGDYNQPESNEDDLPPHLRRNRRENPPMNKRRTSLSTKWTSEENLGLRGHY

[7] = molecular target: T3, RNA-binding protein pos-1 (Caenorhabditis elegans, UniProt G5EF15); assay: inhibitors of POS-1/mex-3 RNA binding, dose response, biochemical, fluorescence polarization (AID 1964);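 further: purified POS-1 fused to maltose binding protein made in E. coli; potency of compounds blocking POS-1 binding to fluorescent RNA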
T3 sequence (G5EF15 whole entry): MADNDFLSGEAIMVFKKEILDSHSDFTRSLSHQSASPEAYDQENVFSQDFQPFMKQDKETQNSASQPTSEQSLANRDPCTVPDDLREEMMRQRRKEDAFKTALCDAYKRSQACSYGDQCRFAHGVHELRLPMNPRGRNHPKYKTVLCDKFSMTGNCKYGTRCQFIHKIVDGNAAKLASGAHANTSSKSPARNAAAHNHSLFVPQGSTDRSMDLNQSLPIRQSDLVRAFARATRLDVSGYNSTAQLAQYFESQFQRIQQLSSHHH

[8] = molecular target: T4, Endoribonuclease toxin MazF (Escherichia coli K-12, UniProt P0AE70); assay: MazF toxin RNase activators, dose response, biochemical, fluorescence, single-stranded RNA substrate, uHTS hits (AID 588481); assay type: functional
T4 sequence (P0AE70 whole entry): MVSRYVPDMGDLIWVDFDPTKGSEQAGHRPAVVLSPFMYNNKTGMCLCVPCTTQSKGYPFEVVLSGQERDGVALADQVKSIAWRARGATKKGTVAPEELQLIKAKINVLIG

[9] = molecular target: T4, Endoribonuclease toxin MazF; assay: fluorescent RNA oligo signal without MazF, dose response, counter-screen for MazEF activator project, biochemical, fluorescence, single-stranded RNase substrate (AID 588502); assay type: functional
[10] = molecular target: T5, Cytochrome P450 1A2 (Homo sapiens, UniProt P05177);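 further: PubChem cytochrome P450 panel assay, CYP1A2 panel member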
T5 sequence (P05177 whole entry): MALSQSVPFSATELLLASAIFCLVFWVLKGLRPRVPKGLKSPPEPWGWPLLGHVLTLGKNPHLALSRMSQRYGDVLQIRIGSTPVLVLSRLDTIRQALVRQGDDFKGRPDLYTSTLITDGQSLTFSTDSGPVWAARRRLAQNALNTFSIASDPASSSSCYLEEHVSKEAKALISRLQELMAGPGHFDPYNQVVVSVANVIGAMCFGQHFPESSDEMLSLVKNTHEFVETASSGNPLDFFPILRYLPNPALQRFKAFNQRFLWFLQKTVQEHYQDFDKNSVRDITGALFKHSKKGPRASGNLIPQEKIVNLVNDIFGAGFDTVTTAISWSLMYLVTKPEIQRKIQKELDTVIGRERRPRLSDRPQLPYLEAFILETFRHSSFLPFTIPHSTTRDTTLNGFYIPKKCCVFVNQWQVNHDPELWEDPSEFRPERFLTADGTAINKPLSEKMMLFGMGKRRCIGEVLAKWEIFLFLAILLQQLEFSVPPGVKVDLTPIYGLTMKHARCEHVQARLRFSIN

[11] = molecular target: T6, Coagulation factor XII (Homo sapiens, UniProt P00748); assay type: functional;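 further: activated factor XIIa alpha cleaving a fluorogenic AMC peptide substrate; inhibitor potency from loss of enzyme activity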
T6 sequence (P00748 whole entry): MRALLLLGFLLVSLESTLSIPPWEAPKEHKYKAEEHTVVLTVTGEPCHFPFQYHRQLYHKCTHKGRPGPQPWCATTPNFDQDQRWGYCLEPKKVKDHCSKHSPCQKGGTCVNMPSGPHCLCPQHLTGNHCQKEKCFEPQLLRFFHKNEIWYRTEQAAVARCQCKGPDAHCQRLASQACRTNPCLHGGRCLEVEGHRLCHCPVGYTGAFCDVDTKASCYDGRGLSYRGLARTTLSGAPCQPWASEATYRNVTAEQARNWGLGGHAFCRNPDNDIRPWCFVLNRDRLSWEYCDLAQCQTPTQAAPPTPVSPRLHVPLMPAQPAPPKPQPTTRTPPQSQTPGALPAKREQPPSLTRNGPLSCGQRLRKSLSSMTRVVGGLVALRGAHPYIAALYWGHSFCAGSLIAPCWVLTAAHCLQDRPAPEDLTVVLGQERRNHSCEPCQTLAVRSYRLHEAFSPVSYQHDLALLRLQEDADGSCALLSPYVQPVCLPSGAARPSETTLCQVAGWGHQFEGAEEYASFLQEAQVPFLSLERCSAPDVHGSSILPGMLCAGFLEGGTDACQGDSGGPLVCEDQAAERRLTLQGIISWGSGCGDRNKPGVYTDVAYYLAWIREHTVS

[12] = molecular target: Cytochrome P450 2D6 (Homo sapiens, UniProt P10635);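 further: CYP2D6 member of a cytochrome P450 panel assay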
Cytochrome P450 2D6, sequence (P10635 whole entry): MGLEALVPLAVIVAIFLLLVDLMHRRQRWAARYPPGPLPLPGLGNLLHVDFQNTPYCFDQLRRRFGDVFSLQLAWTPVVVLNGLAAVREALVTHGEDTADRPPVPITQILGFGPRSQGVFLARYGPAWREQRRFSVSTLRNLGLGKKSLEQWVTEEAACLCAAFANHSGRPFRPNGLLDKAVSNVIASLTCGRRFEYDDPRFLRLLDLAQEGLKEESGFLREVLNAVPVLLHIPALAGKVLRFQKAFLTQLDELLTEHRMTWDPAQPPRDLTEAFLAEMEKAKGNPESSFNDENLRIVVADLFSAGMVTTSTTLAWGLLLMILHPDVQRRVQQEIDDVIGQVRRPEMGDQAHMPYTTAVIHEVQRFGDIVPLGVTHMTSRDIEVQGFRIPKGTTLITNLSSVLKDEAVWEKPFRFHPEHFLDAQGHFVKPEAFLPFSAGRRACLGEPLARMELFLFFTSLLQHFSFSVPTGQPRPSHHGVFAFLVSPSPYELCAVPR

[13] = molecular target: T7, Heat shock factor protein 1 (Mus musculus, UniProt P38532); assay: inhibition of MG132-induced HSE-luciferase signal, confirmation, cell-based, NIH3T3, luminescence, dose retest (AID 2382); assay type: functional;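 further: NIH3T3 fibroblasts with HSF1-driven luciferase reporter stressed by proteasome inhibitor MG132; luminescence from HSF1-driven luciferase expression after 8 hours of MG132 stress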
T7 sequence (P38532 whole entry): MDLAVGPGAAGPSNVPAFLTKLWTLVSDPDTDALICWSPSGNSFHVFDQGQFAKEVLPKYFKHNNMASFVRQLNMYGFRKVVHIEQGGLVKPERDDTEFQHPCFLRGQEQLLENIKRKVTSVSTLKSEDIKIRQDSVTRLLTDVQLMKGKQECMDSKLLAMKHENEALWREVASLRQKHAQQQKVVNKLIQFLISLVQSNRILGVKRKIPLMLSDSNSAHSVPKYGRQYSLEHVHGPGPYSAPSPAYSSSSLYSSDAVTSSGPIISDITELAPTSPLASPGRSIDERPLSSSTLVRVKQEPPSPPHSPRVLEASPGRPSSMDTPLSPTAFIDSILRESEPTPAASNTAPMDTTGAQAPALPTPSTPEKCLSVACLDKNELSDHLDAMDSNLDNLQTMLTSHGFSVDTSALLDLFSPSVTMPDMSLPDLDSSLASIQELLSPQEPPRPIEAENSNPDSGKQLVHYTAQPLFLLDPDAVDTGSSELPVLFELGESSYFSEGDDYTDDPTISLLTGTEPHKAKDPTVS

[14] = system: H9c2; assay: cells; assay type: functional, cell-based; conditions: Rattus norvegicus, H9c2, Myocardium;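 further: confirmatory concentration-response retest of ultra-high-throughput screening hits for modulation of myocardial damage; cell death induced by hydrogen peroxide oxidative stress; compound pretreatment for 60 min then peroxide exposure for 2 h; potency is for protecting the cells against peroxide damage rather than for killing them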
[15] = growth suppression of PTEN-null colon cells, dose response, cell-based, HCT116 PTEN knockout (AID 1047); assay type: functional;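 further: HCT116 colon tumor cells with PTEN knocked out; cells exposed to compound for 60 hours before readout; potency for loss of cell viability measured by luminescence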
[16] = growth suppression of beta-catenin-knockout colon cells, dose response, cell-based, HCT116, human colon tumor (AID 1045); assay type: functional;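 further: HCT116 colon tumor cells with beta catenin knocked out; cells exposed to compound for 60 hours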
[17] = molecular target: Protein Wnt-3a (Mus musculus, UniProt P27467); assay: Wnt3a-driven reporter signaling inhibition, dose response, selectivity assay for Gli-SUFU antagonist project, Wnt-LIGHT cells, luminescence (AID 651570); assay type: functional; conditions: read-out: IC50_Mean;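 further: Wnt-LIGHT reporter cells stimulated with conditioned medium from Wnt3a-producing cells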
Protein Wnt-3a, sequence (P27467 whole entry): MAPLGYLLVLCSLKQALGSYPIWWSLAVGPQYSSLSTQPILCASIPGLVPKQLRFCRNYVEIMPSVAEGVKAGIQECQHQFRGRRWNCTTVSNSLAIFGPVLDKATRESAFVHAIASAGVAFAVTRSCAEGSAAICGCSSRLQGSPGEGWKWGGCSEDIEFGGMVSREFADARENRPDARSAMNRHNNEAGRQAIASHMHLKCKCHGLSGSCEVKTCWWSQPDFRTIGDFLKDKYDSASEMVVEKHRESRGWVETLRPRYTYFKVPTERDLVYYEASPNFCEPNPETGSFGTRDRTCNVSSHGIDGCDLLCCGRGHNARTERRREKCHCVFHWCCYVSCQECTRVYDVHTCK

[18] = Luminescence Cell-Based Dose Retest to Confirm Inhibitors of Cancer Stem Cells. [Related pubchem assays (depositor defined):AID2717, AID2721]; assay type: functional; conditions: Homo sapiens
[19] = molecular target: T8, Protein skinhead-1 (Caenorhabditis elegans, UniProt P34707); assay type: functional
T8 sequence (P34707 whole entry): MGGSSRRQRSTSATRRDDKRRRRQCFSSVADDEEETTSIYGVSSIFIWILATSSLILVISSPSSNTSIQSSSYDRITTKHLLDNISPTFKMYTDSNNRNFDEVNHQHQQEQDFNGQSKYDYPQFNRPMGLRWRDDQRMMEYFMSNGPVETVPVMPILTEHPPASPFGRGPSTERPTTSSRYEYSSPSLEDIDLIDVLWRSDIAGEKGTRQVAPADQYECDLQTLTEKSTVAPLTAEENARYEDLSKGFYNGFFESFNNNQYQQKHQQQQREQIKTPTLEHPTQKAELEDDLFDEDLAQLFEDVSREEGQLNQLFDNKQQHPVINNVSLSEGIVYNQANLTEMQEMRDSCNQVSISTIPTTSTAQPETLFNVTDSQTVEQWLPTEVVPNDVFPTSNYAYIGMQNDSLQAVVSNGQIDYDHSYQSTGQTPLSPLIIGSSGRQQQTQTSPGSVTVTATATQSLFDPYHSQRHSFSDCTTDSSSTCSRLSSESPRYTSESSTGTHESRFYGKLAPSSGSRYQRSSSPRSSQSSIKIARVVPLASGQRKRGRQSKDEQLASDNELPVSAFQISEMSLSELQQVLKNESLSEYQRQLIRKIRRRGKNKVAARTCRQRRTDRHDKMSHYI

[20] = molecular target: Eukaryotic translation initiation factor 4E (Mus musculus, UniProt P63073); assay: eIF4E–eIF4G protein interaction inhibitors, dose response, biochemical, TR-FRET (AID 855); assay type: functional;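 further: potency for disrupting eIF4E binding to eIF4GI seen as loss of FRET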
Eukaryotic translation initiation factor 4E, sequence (P63073 whole entry): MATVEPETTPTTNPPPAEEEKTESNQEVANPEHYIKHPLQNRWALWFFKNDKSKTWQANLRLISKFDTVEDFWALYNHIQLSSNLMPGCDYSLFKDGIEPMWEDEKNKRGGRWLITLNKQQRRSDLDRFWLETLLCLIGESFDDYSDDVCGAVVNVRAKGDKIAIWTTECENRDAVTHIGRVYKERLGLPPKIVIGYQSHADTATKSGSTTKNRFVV

Glyceraldehyde-3-phosphate dehydrogenase, sequence (P04406 whole entry): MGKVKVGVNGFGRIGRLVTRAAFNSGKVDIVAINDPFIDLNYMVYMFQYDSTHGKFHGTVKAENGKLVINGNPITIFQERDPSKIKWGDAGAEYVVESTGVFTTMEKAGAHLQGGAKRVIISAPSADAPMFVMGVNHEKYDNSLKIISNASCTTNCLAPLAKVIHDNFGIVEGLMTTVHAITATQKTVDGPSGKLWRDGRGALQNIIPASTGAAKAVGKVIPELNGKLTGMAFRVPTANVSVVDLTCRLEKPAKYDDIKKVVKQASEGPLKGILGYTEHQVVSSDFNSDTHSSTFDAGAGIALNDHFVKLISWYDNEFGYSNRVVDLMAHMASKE

Cc1ccc(-c2cc(C(=O)O)[nH]n2)c(C)c1
IC50 [1]: > 100 µM (not active) | IC50 [2]: 3.34 µM (active)

CC(=O)CC(=O)[C@@]1(O)CC[C@@H]2[C@@H]3C=C(C)C4=CC(=O)CC[C@@H]4[C@H]3CC[C@]21C
AC50 [3]: 12.6 µM (inconclusive) | AC50 [4]: inconclusive

CCOC(=O)Cc1csc(NC(=O)c2sc3nc4cc(C)ccc4cc3c2N)n1
EC50 [5]: > 89.2 µM (inactive) | EC50 [6]: 1.62 µM (inconclusive) | EC50 [7]: 27.2 µM (inconclusive)

O=C(c1ccc(Cl)cc1)N1CCN(C(=O)c2ccco2)CC1
AC50 [4]: inconclusive

CCOC(=O)c1cc(-c2ccc(Cl)cc2)n[nH]1
IC50 [1]: > 100 µM (not active) | IC50 [2]: 2.35 µM (active)

CC(=O)c1cc2c(C)c(C(=O)c3ccccc3)oc2cc1O
EC50 [8]: > 99 µM (inactive) | EC50 [9]: > 99 µM (inactive)

COCCNc1cc(-c2ccccc2C(F)(F)F)ncn1
AC50 [10]: 15.8 µM (inconclusive) | AC50 [4]: inconclusive

O=C(O)CC1(CC(=O)NCc2ccncc2)CCCCC1
IC50 [11]: > 50 µM (inactive)

NC1=Nc2ccccc2Oc2ccccc21
AC50 [4]: inconclusive | AC50 [12]: 20 µM (inconclusive)

C/C=C1\C(=O)C[C@@H]2[C@@H]3CCC4=CC(=O)CC[C@@]4(C)[C@H]3CC[C@@]12C
AC50 [3]: 39.8 µM (inconclusive) | AC50 [4]: inconclusive

Cc1cc(O)c(/C=N/c2ccc(N3CCOCC3)cc2)c(C)c1Cl
EC50 [8]: 53.5 µM (inactive) | EC50 [9]: > 99 µM (inactive) | EC50 [13]: > 195 µM (not active) | IC50 [14]: > 79 µM (inactive)

CCOC(=O)c1ccc2c(c1)nc(C1CCN(S(=O)(=O)c3cccs3)CC1)n2CC
IC50 [11]: > 50 µM (inactive)

CCN(CC)S(=O)(=O)c1ccc(Cl)c(NC(=O)c2cc(Cl)ccc2Cl)c1
EC50 [8]: > 99 µM (inactive) | EC50 [9]: > 99 µM (inactive)

Cc1ccc(-c2nnc(-c3ccc(NC(=O)Cc4cccs4)cc3)o2)cc1
EC50 [15]: 5.97 µM (active) | EC50 [5]: > 89.2 µM (inactive) | EC50 [16]: 4.87 µM (active)

O=S(=O)(NCc1ccncc1)c1ccc(S(=O)(=O)NCC2CCCO2)cc1 (configuration not stated)
IC50 [17]: 7.09 µM (active) | AC50 [18]: 0.973 µM (active)

Cc1cc(C)n(/N=C/c2ccccc2)c(=O)c1C#N
IC50 [11]: > 50 µM (inactive)

CC(=O)Nc1cc(-c2ccccc2N(C)C)cn2c(-c3ccccc3)cnc12
EC50 [5]: > 89.2 µM (inactive)

COc1ccccc1C(=O)Nc1ccc2ccccc2c1
IC50 [1]: > 10 µM (inconclusive) | IC50 [19]: 42.7 µM (active) | IC50 [2]: > 10 µM (inactive)

COc1ccc(C2c3cc(OC)c(OC)cc3CCN2S(C)(=O)=O)cc1OC (configuration not stated)
IC50 [20]: 50 µM (inactive) | EC50 [6]: > 300 µM (not active) | EC50 [7]: > 300 µM (not active) | IC50 [11]: > 50 µM (inactive)

O=S(=O)(Nc1ccc2ncccc2c1)c1cc(Cl)ccc1Cl
IC50 [1]: > 100 µM (not active) | IC50 [2]: > 100 µM (inactive)
